In brackets after ≈: the same amount, converted by molar mass.

One series concerns Streptococcus faecalis. Nature of the series: Minimum inhibitory concentration, agar dilution, Streptococcus faecalis. In kind it is cell-based. The settings on record: Enterococcus faecalis, 24 h, one isolate per line, 10^4 cfu/spot, trypticase soy agar, 24 hours at 35° C. On the procedure:
(§1) The free acid of the compound of formula I was prepared as aqueous solutions at a concentration of 1.28 mg/ml. Comparative agents vancomycin and streptomycin were prepared at 1.28 mg/ml in Sorensens' buffer, pH 7.
(§2) Each of the drugs was serially diluted twofold in 20×100 mm sterile petri dishes with the aid of a Pipetman. To each plate containing 1 ml of the antibiotic dilution was added 9 ml molten trypticase soy agar (TSA) (BBL) to yield final drug concentrations ranging from 128-0.031 mcg/ml. Plates were swirled to mix, allowed to solidify at room temperature and were stored overnight at 5° C.
(§3) Cultures were grown in trypticase soy broth (TSB) for 16 hours at 35° C. They were diluted 1-100 in TSB to obtain an inoculum of 10^4 cfu/spot when plated using a Denley multipoint inoculator calibrated to deliver 0.0015 ml. Inoculated plates were incubated for 24 hours at 35° C.
(§4) The minimum inhibitory concentration (MIC) was defined as the lowest concentration that allowed no growth or a barely visible haze.

The test system of series [1] is Staphyloccoccus aureus methicillin-resistant (S. aureus Meth-R). Nature of the series: Minimum inhibitory concentration, agar dilution, methicillin-resistant Staphylococcus aureus. The format is cell-based. Particulars: one isolate per line, 10^4 cfu/spot, trypticase soy agar, 24 hours at 35° C. On the procedure:
as §1, §2, §3, §4
(Agar dilution tests growth on a series of plates holding different concentrations.)

The test system of the next series is S. arueus. Kind of series: Minimum inhibitory concentration, agar dilution, S. aureus. In kind it is cell-based. The settings on record: Staphylococcus aureus, 24 h. On the procedure: as §1, §2, §3, §4
Series [2] can be described thus: Stability of the free acid to concentration. The format is physicochemical. Particulars: on concentration of solutions. The method, then:
(d) Due to the instability of the free acid of the compound of formula I to concentration, an alternate method was used to provide concentrated solutions. LH20 fractions 13-25 from Step C, 3250 ml, was extracted with 500 ml of 0.1M potassium phosphate buffer pH 7.2. The compound was extracted into the aqueous layer, 620 ml, which was reextracted with 200 ml of methylene chloride at pH 4.5. The methylene chloride extract was dried over anhydrous sodium sulfate. The extraction volumes could be adjusted to provide varying concentrations of the free acid of the compound of formula I in methylene chloride.

By MIC is commonly meant the smallest concentration in the dilution series that meets the test's criterion for growth inhibition. Low values mean inhibition by little substance, high ones a need for much substance. In the series on Streptococcus faecalis, `CN[C@H](CC(C)C)C(=O)N[C@H]1C(=O)N[C@@H](CC(N)=O)C(=O)N[C@H]2C(=O)N[C@H]3C(=O)N[C@H](C(=O)N[C@H](C(=O)O)c4cc(O)cc(O)c4-c4cc3ccc4O)[C@H](O)c3ccc(c(Cl)c3)Oc3cc2cc(c3O[C@@H]2O[C@H](CO)[C@@H](O)[C@H](O)[C@H]2O[C@H]2C[C@](C)(N)[C@H](O)[C@H](C)O2)Oc2ccc(cc2Cl)[C@H]1O` [Vancomycin] yielded an MIC of 4 µg/mL (≈ 2.76 µM).
Regarding `C#CC#CC#CC(O)C1OC(=O)OC1CCCCCCC(=O)O` (stereo not drawn) [Free Acid of the Compound of Formula I, 5-(1-hydroxy-2,4,6-heptatriynyl)-2-oxo-1,3 dioxolane], the MIC was found to be 0.5 µg/mL in series [1] and 1 µg/mL in the series with S. arueus. In addition, the “instability of the free acid to concentration” value in series [2] is recorded as “instability”.
Consider `[H]/N=C(/N)N[C@H]1[C@H](O)[C@@H](O)[C@H](O[C@@H]2O[C@@H](C)[C@](O)(C=O)[C@H]2O[C@@H]2O[C@@H](CO)[C@H](O)[C@@H](O)[C@@H]2NC)[C@@H](N/C(N)=N\[H])[C@@H]1O` [Streptomycin], for which the minimum inhibitory concentration (MIC) against Streptococcus faecalis is greater than 128 µg/mL; against S. arueus, 116 µg/mL (≈ 199 µM).

The values above are taken from patent US4806566A, “Anti-gram positive bacteria tri-yne carbonates” (Merck & Co., Inc., priority 1987, dated 1989).
